Series [1] has as its system Leishmania major. As to the kind of experiment: Antileishmanial activity against Leishmania major promastigotes measured after 24 hrs by alamar blue staining based fluorescence assay. In kind it is functional, organism-based. In general terms: The colour change of resazurin is a common sign of viable cells or microbes.
In series [2] the test system is Leishmania major. The series is described as follows: Reversible inhibition of DHFR-TS/PTR1 in Leishmania major promastigote form in presence of excess folic acid.
For series [3], the system named is Leishmania major. As to the kind of experiment: Antileishmanial activity against Leishmania major amastigotes measured after 72 hrs by resazurin dye based fluorescence assay. In kind it is functional, organism-based.
Series [4] relates to Leishmania major. The series is described as follows: Potency index, ratio of miltefosine IC50 for Leishmania major amastigote form to compound IC50 for Leishmania major amastigote form. In kind it is functional.
Series [5] in a line: Cytotoxicity against African green monkey Vero cells after 72 hrs by crystal violet staining based assay. It is filed as cell-based. As to conditions: chlorocebus sabaeus.
Series [6] is described as follows: Selectivity index, ratio of CC50 for African green monkey Vero cells to IC50 for leishmania major promastigote. As to conditions: read-out: Ratio CC50/IC50. In kind it is toxicity.
Series [7] relates to Leishmania major. As to conditions: 100 uM.
Description: Inhibition of DHFR-TS/PTR1 in Leishmania major promastigote form assessed as parasite survival at 100 uM measured after 48 hrs relative to control
Series [8] has as its system Leishmania major. As to conditions: 100 uM. The source holds these as a separate data set.
Description: Inhibition of DHFR-TS/PTR1 in Leishmania major promastigote form assessed as parasite survival at 100 uM measured after 48 hrs in presence of 100 uM folic acid relative to control
Series [9] has as its system Leishmania major. The series is described as follows: Inhibition of DHFR-TS/PTR1 in Leishmania major promastigote form assessed as parasite survival at 4.5 uM measured after 48 hrs relative to control.
For series [10], the system named is Leishmania major. As to the kind of experiment: Inhibition of DHFR-TS/PTR1 in Leishmania major promastigote form assessed as parasite survival at 4.5 uM measured after 48 hrs in presence of 20 uM folic acid relative to control.
Series [11] relates to Leishmania major. As to the kind of experiment: Inhibition of DHFR-TS/PTR1 in Leishmania major promastigote form assessed as parasite survival at 4.5 uM measured after 48 hrs in presence of 100 uM of folic acid relative to control.
Series [12] concerns Leishmania major. As to the kind of experiment: Antileishmanial activity against Leishmania major promastigote form assessed as parasite survival at 4.5 uM measured after 48 hrs in presence of 20 uM of folinic acid relative to control. In kind it is functional.
Series [13] concerns Leishmania major. As to the kind of experiment: Antileishmanial activity against Leishmania major promastigote form assessed as parasite survival at 4.5 uM measured after 48 hrs in presence of 100 uM of folinic acid relative to control. It is filed as functional.
Series [14] has as its system Leishmania major. The series is described as follows: Inhibition of DHFR-TS/PTR1 in Leishmania major promastigote form assessed as parasite survival at 5.9 uM measured after 48 hrs relative to control.
Series [15] concerns Leishmania major. The series is described as follows: Inhibition of DHFR-TS/PTR1 in Leishmania major promastigote form assessed as parasite survival at 5.9 uM measured after 48 hrs in presence of 20 uM folic acid relative to control.
The test system of series [16] is Leishmania major. The series is described as follows: Inhibition of DHFR-TS/PTR1 in Leishmania major promastigote form assessed as parasite survival at 5.9 uM measured after 48 hrs in presence of 100 uM folic acid relative to control.
In series [17] the test system is Leishmania major. As to the kind of experiment: Antileishmanial activity against Leishmania major promastigote form assessed as parasite survival at 5.9 uM measured after 48 hrs in presence of 20 uM folinic acid relative to control. It is filed as functional.
The subject of series [18] is Leishmania major. The series is described as follows: Antileishmanial activity against Leishmania major promastigote form assessed as parasite survival at 5.9 uM measured after 48 hrs in presence of 100 uM folinic acid relative to control. In kind it is functional.

SMILES strings stand for the structures. Active and inactive are the calls of the source. No cut-off for these calls is given here.

These results are taken from ChEMBL document CHEMBL4304772, “Synthesis, in vitro biological evaluation and in silico studies of certain arylnicotinic acids conjugated with aryl (thio)semicarbazides as a novel class of anti-leishmanial agents” (Eur J Med Chem, 2019).

Broadly, the IC50 is the midpoint of a concentration-inhibition curve. In the case of `COc1ccc(-c2ccc(C(=O)NNC(=O)Nc3ccc(Cl)cc3)c(C)n2)cc1`, in the series with Leishmania major [1], the IC50 is 21.9 µM. Further, the “reversible inhibition (active/inactive)” value in the series with Leishmania major [2] is “Active”.
Taken in the same sequence, the figures for `COc1ccc(NC(=O)NNC(=O)c2ccc(-c3ccc(OC)c(OC)c3)nc2C)cc1` were 19.7 µM and “Active”.
Taken in the same sequence, the figures for `COc1ccc(-c2ccc(C(=O)NNC(=S)Nc3ccc(Cl)cc3)c(C)n2)cc1OC` were 17.4 µM and “Active”.
By CC50 is commonly meant the concentration giving 50% cytotoxicity. With `COc1ccc(NC(=S)NNC(=O)c2ccc(-c3cc(OC)c(OC)c(OC)c3)nc2C)cc1`, the values for the IC50 in the series with Leishmania major [1] and with Leishmania major [3] were 5.8 µM and 5.9 µM, respectively. Moreover, the “Ratio IC50” value in the series with Leishmania major [4] was 1.2 - 2.2. The same compound returned a cytotoxic concentration (CC50) at 72 h in series [5] of 506 µM. Further, the selectivity ratio in series [6] was found to be 87.2. The “reversible inhibition (active/inactive)” value in the series with Leishmania major [2] is “Active”.
For the compound `COc1ccc(-c2ccc(C(=O)NNC(=S)Nc3ccccc3)c(C)n2)cc1OC`, in the series on Leishmania major [1], half-maximal inhibition (IC50) required 9.2 µM. In addition, in the series with Leishmania major [2], the “reversible inhibition (active/inactive)” value is “Active”.
Take `COc1cc(-c2ccc(C(=O)NNC(=S)Nc3ccc(C)cc3)c(C)n2)cc(OC)c1OC`: the IC50 in the series on Leishmania major [1] stood at 6.1 µM; in the series on Leishmania major [3] it was 5.8 µM. Also, the “Ratio IC50” value in the series on Leishmania major [4] is 1.2 - 2.2. Further, half-maximal cytotoxicity in [5] (CC50 at 72 h) was put at 574 µM. The selectivity ratio in series [6] came out at 94.2. The “reversible inhibition (active/inactive)” value with Leishmania major [2] was “Active”.
Turning to `COc1cc(Cc2cnc(N)nc2N)cc(OC)c1OC`, the “reversible inhibition (active/inactive)” value in the series on Leishmania major [2] is “Active”. Besides, the Survival worked out at 69% in the series on Leishmania major [7] and 99% in the series on Leishmania major [8].
Turning to `COc1ccc(NC(=O)NNC(=O)c2ccc(-c3ccc(OC)cc3)nc2C)cc1`, the midpoint of inhibition with Leishmania major [1], the IC50, lay at 20 µM. The “reversible inhibition (active/inactive)” value with Leishmania major [2] is “Active”.
`COc1ccc(-c2ccc(C(=O)NNC(=O)Nc3ccccc3)c(C)n2)cc1`: in the series with Leishmania major [1], half-maximal inhibition (IC50) required 18.6 µM. Also, the “reversible inhibition (active/inactive)” value in the series with Leishmania major [2] was “Active”.
The like results for `COc1ccc(-c2ccc(C(=O)NNC(=S)Nc3ccc(C)cc3)c(C)n2)cc1OC` were, in that order, 10.2 µM and “Active”.
Taken in the same sequence, the figures for `COc1ccc(-c2ccc(C(=O)NNC(=S)Nc3ccccc3)c(C)n2)cc1` were 12 µM and “Active”.
The like results for `COc1ccc(-c2ccc(C(=O)NNC(=O)Nc3ccc(Cl)cc3)c(C)n2)cc1OC` were, in that order, 18.8 µM and “Active”.
For `COc1ccc(-c2ccc(C(=O)NNC(=S)Nc3ccc(C)cc3)c(C)n2)cc1`, in the series with Leishmania major [1], the IC50 turned out to be 10.7 µM. Also, the “Ratio IC50” value in the series on Leishmania major [4] was 1.2 - 2.2. Also, in the series with Leishmania major [2], the “reversible inhibition (active/inactive)” value is “Active”.
As to `COc1ccc(-c2ccc(C(=O)NNC(=S)Nc3ccc(Cl)cc3)c(C)n2)cc1`, the IC50 in the series with Leishmania major [1] came out at 16.7 µM. For the same compound, in the series with Leishmania major [2], the “reversible inhibition (active/inactive)” value is “Active”.
For `COc1ccc(NC(=S)NNC(=O)c2ccc(-c3ccc(OC)c(OC)c3)nc2C)cc1`, the figures for the 50% inhibitory concentration (IC50) in the series on Leishmania major [1] and in the series on Leishmania major [3] were 6.4 µM and 4.8 µM, respectively. The “Ratio IC50” value with Leishmania major [4] is 1.2 - 2.2. This compound also returned a 50% cytotoxic concentration (CC50) at 72 h in series [5] of 632 µM. Also, in series [6], the selectivity ratio stood at 98.8. In the series with Leishmania major [2], the “reversible inhibition (active/inactive)” value is “Active”.
`COc1cc(-c2ccc(C(=O)NNC(=O)Nc3ccccc3)c(C)n2)cc(OC)c1OC` displayed an IC50 in the series with Leishmania major [1] of 19.8 µM. Further, the “reversible inhibition (active/inactive)” value in the series with Leishmania major [2] is “Active”.
Turning to `COc1ccc(NC(=S)NNC(=O)c2ccc(-c3ccc(OC)cc3)nc2C)cc1`, inhibition with Leishmania major [1] was half-maximal at 11.4 µM (IC50). Also, the “reversible inhibition (active/inactive)” value in the series on Leishmania major [2] is “Active”.
The like results for `COc1cc(-c2ccc(C(=O)NNC(=O)Nc3ccc(Cl)cc3)c(C)n2)cc(OC)c1OC` were, in that order, 23.9 µM and “Active”.
Turning to `COc1cc(-c2ccc(C(=O)NNC(=S)Nc3ccc(Cl)cc3)c(C)n2)cc(OC)c1OC`, the IC50 came to 4.3 µM with Leishmania major [1] and 3.3 µM with Leishmania major [3]. The “Ratio IC50” value in the series with Leishmania major [4] is listed as 1.2 - 2.2. For the same compound, the Survival turned out to be 23% with Leishmania major [9]; 78% in the series with Leishmania major [10]; 87% with Leishmania major [11]; 81% in the series on Leishmania major [12]; 93% with Leishmania major [13]. The same compound gave a CC50 at 72 h in series [5] of 523 µM. Besides, in [6], the selectivity ratio worked out at 122. Further, the “reversible inhibition (active/inactive)” value with Leishmania major [2] was “Active”.
Regarding `COc1cc(-c2ccc(C(=O)NNC(=S)Nc3ccccc3)c(C)n2)cc(OC)c1OC`, the IC50 in the series with Leishmania major [1] was determined as 5.7 µM; with Leishmania major [3] it was 4.2 µM. The “Ratio IC50” value in the series with Leishmania major [4] is listed as 1.2 - 2.2. For the same compound, the Survival stood at 25% in the series on Leishmania major [14]; 72% with Leishmania major [15]; 84% in the series on Leishmania major [16]; 75% in the series with Leishmania major [17]; 88% in the series with Leishmania major [18]. Further, the CC50 at 72 h in series [5] is 513 µM. Also, the selectivity ratio in series [6] stood at 90.1. Also, the “reversible inhibition (active/inactive)” value in the series on Leishmania major [2] was “Active”.
In the series on Leishmania major [1], `COc1ccc(-c2ccc(C(=O)NNC(=O)Nc3ccccc3)c(C)n2)cc1OC` had an IC50 of 16.7 µM. In addition, the “reversible inhibition (active/inactive)” value with Leishmania major [2] is “Active”.
In turn, `COc1ccc(NC(=O)NNC(=O)c2ccc(-c3cc(OC)c(OC)c(OC)c3)nc2C)cc1` gave an IC50 in the series with Leishmania major [1] of 22.5 µM. Moreover, the “reversible inhibition (active/inactive)” value with Leishmania major [2] is “Active”.
Regarding `CCCCCCCCCCCCCCCCOP(=O)([O-])OCC[N+](C)(C)C` [MILTEFOSINE], the IC50 was determined as 7.6 µM with Leishmania major [1] and 7.3 µM in the series on Leishmania major [3].
